system: P. falciparum 3D7 growth, pLDH absorbance; assay: blood-stage malaria parasite growth potency – strain 3D7, dose response (AID 2305)

Row | Compound | IC50
1 | CCc1ccccc1N1CCN(CCCC(=O)c2ccc(NC(=O)c3ccc(Cl)cc3)cc2)CC1 | 1310 nM
2 | O=S(=O)(Nc1cccc(CCN2CCCCC2CCN2CCCC2)c1)c1cccc2ccccc12 (stereo not drawn) | 820 nM
3 | CN1CCCC(CN2CCN(Cc3ccc(-c4cccc(-c5nc6ccccc6[nH]5)c4)cc3)CC2)C1 (stereo not drawn) | 130 nM
4 | COc1cc2nccc(Nc3ccc4c(cnn4Cc4cccc(F)c4)c3)c2cc1OC | 240 nM
5 | COc1cc(-c2nc(-c3ccc4c(c3)CCC4=NO)c(-c3ccncc3)[nH]2)ccc1OCCN1CCN(C)CC1 | 760 nM
6 | c1cc(CN2CCc3ccccc3CC2)cc(-c2c[nH]c3nc(NC4CCCC4)ncc23)c1 | 800 nM
7 | OCC1CCCCN1Cc1cccc(-c2cccc(-c3nc4ccccc4[nH]3)c2)c1 (stereo not drawn) | 780 nM
8 | Oc1ccc2ccccc2c1C=NNc1nc(Nc2ccccc2)nc(N2CCOCC2)n1 | 890 nM
9 | COc1ccc(CNCc2cccc(-c3cccc(-c4nc5ccc(C(F)(F)F)cc5[nH]4)c3)c2)cc1 | 200 nM
10 | C#CCN(Cc1ccc2nc(N)[nH]c(=O)c2c1)c1ccc(C(=O)N[C@@H](CCC(=O)O)C(=O)O)cc1 | 220 nM
11 | COc1ccc2nccc([C@@H](O)CN3CCC(NC(=O)c4nc(Cl)c(Cl)c(N)c4Cl)CC3)c2c1 | 1300 nM
12 | O=C(Nc1cccc(-c2cccc(-c3nc4ccccc4[nH]3)c2)c1)Nc1ccc(F)c(F)c1F | 60 nM
13 | O=C(Nc1ccc(CN2CCOCC2)cc1)c1ccc(-c2ccc(Cl)cc2)o1 | 860 nM
14 | CCOc1c(C)cc(C(F)(F)F)cc1CNCCCNc1cc(=O)c2ccccc2[nH]1 | 160 nM
15 | NCCCNc1ccnc2cc(Cl)ccc12 | 300 nM
16 | Oc1c(C(Nc2ccccn2)c2ccc(Cl)cc2Cl)ccc2cccnc12 (stereo not drawn) | 890 nM
17 | O=[N+]([O-])c1ccc(Nc2nc(NCc3ccccc3)nc(NN=Cc3ccccc3[N+](=O)[O-])n2)cc1 | 160 nM
18 | Cc1cc(N)ncc1-c1ccc(NC(=O)Nc2cc(C(F)(F)F)ccc2F)cc1 | 700 nM
19 | O=C(Nc1cccc(-c2cccc(-c3nc4ccc(C(F)(F)F)cc4[nH]3)c2)c1)c1ccc(=O)[nH]n1 | 660 nM
20 | COc1ccc(NC(=O)Nc2ccc(-c3ccccc3)cc2)cc1Cn1nc(Cl)c(N2CCCNCC2)cc1=O | 360 nM
21 | CCNc1cc(C(=O)N[C@@H](Cc2ccccc2)[C@H](O)CNC2CCC(C(C)(C)C)CC2)cc(N2CCCC2=O)c1 (stereo partly drawn) | 440 nM
22 | COc1ccc(Cl)cc1S(=O)(=O)Nc1cccc(CCN2CCC(N3CCCCC3)CC2)c1 | 700 nM
23 | CN1CCC(C(=O)N(Cc2ccc(-c3ccc(CNCCc4ccc(S(C)(=O)=O)cc4)cn3)cc2)Cc2cccc(F)c2)CC1 | 710 nM

Row | Compound | IC50
24 | CN(C)c1ccc(C=Cc2ccc3ccccc3n2)c(Cl)c1 | 440 nM
25 | COc1ccc(-c2ccc(NC(=O)c3ccc(C#N)cc3)cc2)cc1CNC(C)C | 530 nM
26 | O=C(Cc1ccccc1)NC1CCN(c2ccnc3cc(Cl)ccc23)C1 (stereo not drawn) | 800 nM
27 | CS(=O)(=O)c1ccc(CNCc2ccc(-c3ccc(-c4nc5ccc(C(F)(F)F)cc5[nH]4)cc3)cc2)cc1 | 710 nM
28 | N=c1n(CCN2CCCCC2)c2ccccc2n1CC(=O)c1cccc([N+](=O)[O-])c1 | 880 nM
29 | O=C(NCCCCN1CCN(CC=Cc2ccccc2)CC1)c1ccc(NC(=O)c2cc(Cl)cc(Cl)c2)cc1 | 210 nM
30 | COc1ccc(C2=C(Nc3ccc4oc5ccccc5c4c3)c3ccccc3C2=O)cc1 | 830 nM
31 | O=C(/C=C/c1ccc(Cl)c(Cl)c1)Nc1cccc(CN2CCC(c3c[nH]c4ccc(O)cc34)CC2)c1 | 940 nM
32 | Oc1c(C(Nc2nc3ccccc3s2)c2ccc(OC(F)F)cc2)ccc2cccnc12 (stereo not drawn) | 570 nM
33 | CN1CCC(NCc2cccc(-c3cccc(S(=O)(=O)NCc4ccccc4)c3)c2)CC1 | 750 nM
34 | NC(=NCCc1ccc(Cl)cc1)c1ccc(Cl)c(Cl)c1 | 1100 nM
35 | Cn1c(NC(=O)C2CCC(CNC(=O)c3ccc(O)c(-c4cccc([N+](=O)[O-])c4)c3)CC2)nc2ccccc21 (stereo not drawn) | 980 nM
36 | FC(F)(F)CNc1nc(Nc2ccc3ncccc3c2)nc2[nH]ccc12 | 1240 nM
37 | COc1ccc2nc(-c3ccc(F)cc3)cc([C@@H](O)[C@@H]3C[C@@H]4CCN3CC4C=NO)c2c1 (stereo partly drawn) | 250 nM
38 | Cc1ccccc1C1CCN(C2CCC(NC(=O)c3ccc(-c4ccccn4)s3)CC2)CC1 (stereo not drawn) | 1180 nM
39 | CCCCNC[C@@H](O)[C@H](Cc1ccccc1)NC(=O)c1cc(NCC)cc(N2CCCCS2(=O)=O)c1 | 400 nM
40 | Cc1cc(N[C@@H](Cc2ccccc2)C(=O)NCCOc2ccccc2)nc(NCCOc2ccccc2)n1 | 1360 nM
41 | COc1ccc(-c2c(-c3ccc(OCc4ccccc4)cc3O)n[nH]c2C(F)(F)F)cc1 | 1170 nM
42 | NS(=O)(=O)c1cccc(Nc2nccc(-c3cnn4ncccc34)n2)c1 | 660 nM
43 | CC(Cc1ccc(NC(=O)c2ccc(CC(C)NCc3ccc(Cl)cc3)cc2)cc1)NCCc1cccc(Cl)c1 (stereo not drawn) | 450 nM
44 | Cc1[nH]c(C)c(-c2ccc(-c3ccc(OC(F)(F)F)cc3)cc2)c(=O)c1Br | 40 nM
45 | Fc1ccccc1CNc1ncc(-c2ccsc2)c(-c2nccs2)n1 | 50 nM
46 | Cc1cccc2[nH]c(-c3cccc(-c4ccc(CNCc5cccc(N)c5)cc4)c3)nc12 | 260 nM

Row | Compound | IC50
47 | Cc1[nH]c2cc(Cl)ccc2c1C1=CCN(CCCCC2(C)C(=O)Nc3ccccc32)CC1 (stereo not drawn) | 330 nM
48 | CCN(CC)C(=NCCCCCCN=C(/N=C(\N)Nc1ccc(Cl)c(Cl)c1)N(CC)CC)/N=C(\N)Nc1ccc(Cl)c(Cl)c1 | 760 nM
49 | Oc1cc(Nc2ccnc3cc(-c4cccc(CN5CCOCC5)c4)ccc23)c(F)cc1Cl | 210 nM
50 | COc1ccc2nc(C)cc(Nc3ccc(Cl)cc3)c2c1 | 950 nM
51 | COc1cc(C2=NN(S(=O)(=O)c3c(Cl)cc(Cl)cc3Cl)CCCC2)ccc1Cl | 290 nM
52 | Cc1cc(N2CCCN(C)CC2)nc(Nc2ccc(Cl)cc2)n1 | 800 nM
53 | O=C(NCCN1CCC(NC(=O)c2ccc(-c3ccccn3)s2)CC1)c1cccc(C(F)(F)F)c1 | 860 nM
54 | C(=N\Nc1nccc2sc(-c3cccnc3)cc12)/c1cccnc1 | 420 nM
55 | N#Cc1ccc(N(CCOc2ccc(Cl)cc2)Cc2ccccc2C(F)(F)F)cc1C(F)(F)F | 660 nM
56 | Cc1ncc([N+](=O)[O-])n1CCOC(=O)NC(Nc1ccc(Br)cc1)C(Cl)(Cl)Cl (stereo not drawn) | 960 nM
57 | O=C(Nc1ccc(F)c(F)c1)c1ccc(CN2CCCN(Cc3cccc(O)c3)CC2)cc1 | 840 nM
58 | Fc1ccc2nc(-c3ccc(-c4cccc(CN5CCN(c6ccncc6)CC5)c4)cc3)[nH]c2c1 | 90 nM
59 | COC(=O)Cn1c(C2CCN(CC3CCC(NC(=O)/C=C/c4ccc(Cl)c(Cl)c4)CC3)CC2)nc2ccccc21 (stereo not drawn) | 1140 nM
60 | CC1CCN(CCNC(=O)c2ccc3c(=O)n(Cc4ccc(Cl)cc4)c(=S)[nH]c3c2)CC1 | 700 nM
61 | O=C(Nc1cccc(C(F)(F)F)c1)c1cc([N+](=O)[O-])cc2cn[nH]c12 | 990 nM
62 | CCOc1ccc(-c2nonc2NC(=O)c2cccc(Cl)c2)cc1OCC | 150 nM
63 | Cc1[nH]c(C)c(-c2ccc(Oc3ccc(F)cc3)cc2)c(=O)c1Cl | 50 nM
64 | C[C@@H](NCCc1cccc(Cl)c1)[C@@H](O)c1ccc(OCCCCCCOc2ccc([C@H](O)[C@@H](C)NCCc3cccc(Cl)c3)cc2)cc1 | 400 nM
65 | C[C@@H]1CN(c2cnn(Cc3ccc(NC(=O)Nc4ccc(-c5ccccc5)cc4)cc3)c(=O)c2Cl)C[C@H](C)N1 | 370 nM
66 | NC(N)=NN=Cc1cc2ccccc2c2ccccc12 | 180 nM
67 | Cc1c2c(nn1-c1ccccc1)C(c1ccccc1)N(c1ccccc1)C2=O (stereo not drawn) | 150 nM
68 | COc1ccc(F)cc1-c1ccccc1CNC(=O)CN(C)S(=O)(=O)c1cc(C)cc(Cl)c1C | 660 nM

— PubChem BioAssay AID2305 (GlaxoSmithKline (GSK), 2010)
